# Laboratory results reported in US20190255086A1, “Compositions and Methods for Treating an Infection” (CMPD Licensing, LLC, priority 2015, published 2019).
# Legend:
# [1] = tested on: Aspergillus fumigatus; experiment: Expected efficacy of anti-fungal agents against various fungi (Table 4)
# [2] = tested on: Aspergillus niger; experiment: as above
# [3] = tested on: Aspergillus terreus; experiment: as above
# [4] = tested on: Blastomyces dermatitidis; experiment: as above
# [5] = tested on: Candida species; experiment: as above
# [6] = tested on: Coccidioides immitis; conditions: expected efficacy
# [7] = tested on: Cryptococcus neoformans; experiment: Expected efficacy of anti-fungal agents against various fungi (Table 4)
# [8] = tested on: Leishmania donovani; experiment: as above
# [9] = tested on: Clostridium perfringens; conditions: expected efficacy; Clostridium perfringens; Gram: anaer
# [10] = tested on: Acinetobacter baumannii; experiment: Expected efficacy of anti-bacterial agents against various bacteria (Tables 5 and 6); conditions: Gram: neg
# [11] = tested on: Acinetobacter calcoaceticus; experiment: as above; conditions: Gram: neg
# [12] = tested on: Acinetobacter lwoffii; experiment: as above; conditions: Gram: neg
# [13] = tested on: Bartonella bacilliformis; experiment: as above; conditions: Gram: neg
# [14] = tested on: Bordetella pertussis; experiment: as above; conditions: Gram: neg
# [15] = tested on: Brucella species; conditions: expected efficacy; Brucella species; Gram: neg
# [16] = tested on: Campylobacter jejuni; experiment: Expected efficacy of anti-bacterial agents against various bacteria (Tables 5 and 6); conditions: Gram: neg
# [17] = tested on: Citrobacter diversus; experiment: as above; conditions: Gram: neg
# [18] = tested on: Citrobacter freundii; experiment: as above; conditions: Gram: neg
# [19] = tested on: Enterobacter aerogenes; experiment: as above; conditions: Gram: neg
# [20] = tested on: Enterobacter cloacae; experiment: as above; conditions: Gram: neg
# [21] = tested on: Enterobacter sakazakii; experiment: as above; conditions: Gram: neg
# [22] = tested on: Escherichia coli; experiment: as above; conditions: Gram: neg
# [23] = tested on: Francisella tularensis; conditions: expected efficacy; Francisella tularensis; Gram: neg
# [24] = tested on: Haemophilus ducreyi; experiment: Expected efficacy of anti-bacterial agents against various bacteria (Tables 5 and 6); conditions: Gram: neg
# [25] = tested on: Haemophilus influenzae; experiment: as above; conditions: Gram: neg
# [26] = tested on: Klebsiella (Calymmatobacterium) granulomatis; experiment: as above; conditions: Gram: neg
# [27] = tested on: Klebsiella oxytoca; experiment: as above; conditions: Gram: neg
# [28] = tested on: Klebsiella pneumoniae; experiment: as above; conditions: Gram: neg
# [29] = tested on: Legionella pneumophila; conditions: expected efficacy; Legionella pneumophila; Gram: neg
# [30] = tested on: Moraxella catarrhalis; experiment: Expected efficacy of anti-bacterial agents against various bacteria (Tables 5 and 6); conditions: Gram: neg
# [31] = tested on: Morganella morganii; experiment: as above; conditions: Gram: neg
# [32] = tested on: Neisseria gonorrhoeae; experiment: as above; conditions: Gram: neg
# [33] = tested on: Neisseria meningitidis; experiment: as above; conditions: Gram: neg
# [34] = tested on: Proteus mirabilis; experiment: as above; conditions: Gram: neg
# [35] = tested on: Proteus vulgaris; experiment: as above; conditions: Gram: neg
# [36] = tested on: Providencia rettgeri; experiment: as above; conditions: Gram: neg
# [37] = tested on: Providencia stuartii; experiment: as above; conditions: Gram: neg
# [38] = tested on: Pseudomonas aeruginosa; experiment: as above; conditions: Gram: neg
# [39] = tested on: Pseudomonas fluorescens; experiment: as above; conditions: Gram: neg
# [40] = tested on: Rickettsiae; conditions: expected efficacy; Rickettsiae; Gram: neg
# [41] = tested on: Salmonella typhi; experiment: Expected efficacy of anti-bacterial agents against various bacteria (Tables 5 and 6); conditions: Gram: neg
# [42] = tested on: Serratia marcescens; experiment: as above; conditions: Gram: neg
# [43] = tested on: Shigella boydii; experiment: as above; conditions: Gram: neg
# [44] = tested on: Shigella dysenteriae; experiment: as above; conditions: Gram: neg
# [45] = tested on: Shigella flexneri; experiment: as above; conditions: Gram: neg
# [46] = tested on: Shigella sonnei; experiment: as above; conditions: Gram: neg
# [47] = tested on: Vibrio cholerae; experiment: as above; conditions: Gram: neg
# [48] = tested on: Yersinia pestis; conditions: expected efficacy; Yersinia pestis; Gram: neg
# [49] = tested on: Corynebacterium jeikeium; experiment: Expected efficacy of anti-bacterial agents against various bacteria (Tables 5 and 6); conditions: Gram: pos
# [50] = tested on: Corynebacterium urealyticum; experiment: as above; conditions: Gram: pos
# [51] = tested on: Methicillin resistant staph aureus (MRSA); experiment: as above; conditions: Gram: pos
# [52] = tested on: Staphylococcus aureus (MSSA); experiment: as above; conditions: Gram: pos
# [53] = tested on: Streptococcus pyogenes; experiment: as above; conditions: Gram: pos
# [54] = tested on: gram-positive staphylococci and streptococci; conditions: general background statement; cited from earlier work
# [55] = tested on: Fusarium species; experiment: Expected efficacy of anti-fungal agents against various fungi (Table 4)
# [56] = tested on: Histoplasma duboisii; conditions: expected efficacy
# [57] = tested on: Sporothrix schenckii; experiment: Expected efficacy of anti-fungal agents against various fungi (Table 4)
# [58] = tested on: Trichophyton mentagrophytes; experiment: as above
# [59] = tested on: Trichophyton rubrum; experiment: as above
smiles,measurement,setting,value
C[C@@H]1[C@H](O)[C@@H](C)/C=C/C=C/C=C/C=C/C=C/C=C/C=C/[C@H](O[C@@H]2O[C@H](C)[C@@H](O)[C@H](N)[C@@H]2O)C[C@@H]2O[C@](O)(C[C@@H](O)C[C@@H](O)[C@H](O)CC[C@@H](O)C[C@@H](O)CC(=O)O[C@H]1C)C[C@H](O)[C@H]2C(=O)O [Amphotericin],Efficacy of various antifungal agents,[1],yes
same,Efficacy of various antifungal agents,[2],yes
same,Efficacy of various antifungal agents,[3],yes
same,Efficacy of various antifungal agents,[4],yes
same,Efficacy of various antifungal agents,[5],yes
same,Efficacy of various antifungal agents,[6],yes
same,Efficacy of various antifungal agents,[7],yes
same,Efficacy of various antifungal agents,[8],yes
"C/C(=C\C(=O)OCCCCCCCCC(=O)O)C[C@@H]1OC[C@H](C[C@@H]2O[C@H]2[C@@H](C)[C@H](C)O)[C@@H](O)[C@H]1O [Bactroban, Mupirocin]",Efficacy of various antibiotic agents,[9],no
same,Efficacy of various antibiotic agents,[10],no
same,Efficacy of various antibiotic agents,[11],no
same,Efficacy of various antibiotic agents,[12],no
same,Efficacy of various antibiotic agents,[13],no
same,Efficacy of various antibiotic agents,[14],no
same,Efficacy of various antibiotic agents,[15],no
same,Efficacy of various antibiotic agents,[16],no
same,Efficacy of various antibiotic agents,[17],no
same,Efficacy of various antibiotic agents,[18],no
same,Efficacy of various antibiotic agents,[19],no
same,Efficacy of various antibiotic agents,[20],no
same,Efficacy of various antibiotic agents,[21],no
same,Efficacy of various antibiotic agents,[22],no
same,Efficacy of various antibiotic agents,[23],no
same,Efficacy of various antibiotic agents,[24],no
same,Efficacy of various antibiotic agents,[25],no
same,Efficacy of various antibiotic agents,[26],no
same,Efficacy of various antibiotic agents,[27],no
same,Efficacy of various antibiotic agents,[28],no
same,Efficacy of various antibiotic agents,[29],no
same,Efficacy of various antibiotic agents,[30],no
same,Efficacy of various antibiotic agents,[31],no
same,Efficacy of various antibiotic agents,[32],no
same,Efficacy of various antibiotic agents,[33],no
same,Efficacy of various antibiotic agents,[34],no
same,Efficacy of various antibiotic agents,[35],no
same,Efficacy of various antibiotic agents,[36],no
same,Efficacy of various antibiotic agents,[37],no
same,Efficacy of various antibiotic agents,[38],no
same,Efficacy of various antibiotic agents,[39],no
same,Efficacy of various antibiotic agents,[40],no
same,Efficacy of various antibiotic agents,[41],no
same,Efficacy of various antibiotic agents,[42],no
same,Efficacy of various antibiotic agents,[43],no
same,Efficacy of various antibiotic agents,[44],no
same,Efficacy of various antibiotic agents,[45],no
same,Efficacy of various antibiotic agents,[46],no
same,Efficacy of various antibiotic agents,[47],no
same,Efficacy of various antibiotic agents,[48],no
same,Efficacy of various antibiotic agents,[49],no
same,Efficacy of various antibiotic agents,[50],no
same,Efficacy of various antibiotic agents,[51],yes
same,Efficacy of various antibiotic agents,[52],yes
same,Efficacy of various antibiotic agents,[53],yes
same,activity against gram-positive staphylococci and streptococci,[54],excellent activity
C[C@@H](c1ncncc1F)[C@](O)(Cn1cncn1)c1ccc(F)cc1F [Voriconazole],Efficacy of various antifungal agents,[1],yes
same,Efficacy of various antifungal agents,[2],yes
same,Efficacy of various antifungal agents,[3],yes
same,Efficacy of various antifungal agents,[5],yes
same,Efficacy of various antifungal agents,[55],yes
CCC(C)n1ncn(-c2ccc(N3CCN(c4ccc(OC[C@H]5CO[C@](Cn6cncn6)(c6ccc(Cl)cc6Cl)O5)cc4)CC3)cc2)c1=O (mixture of isomers) [Itraconazole],Efficacy of various antifungal agents,[1],yes
same,Efficacy of various antifungal agents,[4],yes
same,Efficacy of various antifungal agents,[5],yes
same,Efficacy of various antifungal agents,[6],yes
same,Efficacy of various antifungal agents,[7],yes
same,Efficacy of various antifungal agents,[56],yes
same,Efficacy of various antifungal agents,[57],yes
same,Efficacy of various antifungal agents,[58],yes
same,Efficacy of various antifungal agents,[59],yes
